Measurements as given in patent US6596741B2, “Biaryl ether derivatives useful as monoamine reuptake inhibitors” (Pfizer Inc, priority 1999, dated 2003).
Where a name gives a salt, the structure may show the parent alone.

Row | melting point | SMILES
1 | 208 to 210 °C | CNCc1cc(-c2ccc(C)cc2)ccc1Oc1ccc(Cl)c(Cl)c1 (as salt: HCl) (hydrate or solvate) [Example 3, [4-(3,4-Dichlorophenoxy)-4′-methyl-biphenyl-3-ylmethyl]-methylamine]
2 | 188 to 191 °C | CNCc1cc(-c2ccco2)ccc1Oc1ccc(Cl)c(Cl)c1 (as salt: HCl) (hydrate or solvate) [Example 6, [2-(3,4-Dichlorophenoxy)-5-furan-2-ylbenzyl]-methylamine]
3 | 179 to 181 °C | CNCc1cc(-c2ccncc2)ccc1Oc1ccc(Cl)c(Cl)c1 (as salt: HCl) (hydrate or solvate) [Example 14, [2-(3,4-Dichlorophenoxy)-5-pyridin-4-ylbenzyl]-methylamine]
4 | 169 to 172 °C | CNCc1cc(-c2ccsc2)ccc1Oc1ccc(Cl)c(Cl)c1 (as salt: HCl) [Example 8, [2-(3,4-Dichlorophenoxy)-5-thiophen-3-ylbenzyl]-methylamine]
5 | 207 to 209 °C | CNCc1cc(-c2cccs2)ccc1Oc1ccc(Cl)c(Cl)c1 (as salt: HCl) [Example 10, [2-(3,4-Dichlorophenoxy)-5-thiophen-2-ylbenzyl]-methylamine]
6 | 168 to 171 °C | CNCc1cc(-c2cccnc2)ccc1Oc1ccc(Cl)c(Cl)c1 (as salt: HCl) [Example 13, [2-(3,4-Dichlorophenoxy)-5-pyridin-3-ylbenzyl]-methylamine]

Further lines, the compound ahead of its results:

Row | SMILES | melting point
7 | CNCc1cc(-n2ccc(N)n2)ccc1Oc1ccc(Cl)c(Cl)c1.Cl.Cl | 225 to 233 °C
8 | CNC(C)c1cc(N2CCCC2=O)ccc1Oc1ccc(Cl)c(Cl)c1.Cl (stereo not shown) | 195 to 200 °C
9 | CNCc1ccc(-c2ccsc2)cc1Oc1ccc(Cl)c(Cl)c1 (as salt: HCl) (hydrate or solvate) [Example 9, [2-(3,4-Dichlorophenoxy)-4-thiophen-3-ylbenzyl]-methylamine] | 181 to 184 °C
10 | CNCc1ccc(-c2ccccc2)cc1Oc1ccc(Cl)c(Cl)c1 (as salt: HCl) [Example 2, [3-(3,4-Dichlorophenoxy)-biphenyl-4-ylmethyl]-methylamine] | 186 to 194 °C
11 | CNCc1ccc(-c2cccs2)cc1Oc1ccc(Cl)c(Cl)c1 (as salt: HCl) [Example 11, [2-(3,4-Dichlorophenoxy)-4-thiophen-2-ylbenzyl]-methylamine] | 180 to 183 °C
12 | CNCc1cc(N2CCCC2=O)ccc1Oc1ccc(Cl)c(Cl)c1 (as salt: HCl) [Example 19, 1-[4-(3,4-Dichlorophenoxy)-3-(methylaminomethyl)phenyl]-pyrrolidin-2-one] | 166 to 170 °C
13 | CNCc1ccc(-c2ccco2)cc1Oc1ccc(Cl)c(Cl)c1 (hydrate or solvate) [Example 7, [2-(3,4-Dichlorophenoxy)-4-furan-2-ylbenzyl]-methylamine] | 129 to 134 °C
